# Where two headings read alike, the source gives them in different places.
# Legend:
# CCRF-CEM = assay: NCI in-vitro testing, CCRF-CEM (Leukemia)
# RXF 393 = assay: NCI in-vitro testing, RXF 393 (Renal Cancer)
# SF-539 = assay: NCI in-vitro testing, SF-539 (CNS Cancer)
# [1] = tested on: panel of 60 cancer cell lines; assay: NCI Developmental Therapeutics Program in-vitro testing, panel of 60 cancer cell lines (whole panel); type: cell-based
# SNB-75 = assay: NCI in-vitro testing, SNB-75 (CNS Cancer)
# SF-268 = assay: NCI in-vitro testing, SF-268 (CNS Cancer)
# ACHN = assay: NCI in-vitro testing, ACHN (Renal Cancer)
# MOLT-4 = assay: NCI in-vitro testing, MOLT-4 (Leukemia)
# NCI-H23 = assay: NCI in-vitro testing, NCI-H23 (Non-Small Cell Lung Cancer)
# SNB-19 = assay: NCI in-vitro testing, SNB-19 (CNS Cancer)
# DU-145 = assay: NCI in-vitro testing, DU-145 (Prostate Cancer)
# HOP-62 = assay: NCI in-vitro testing, HOP-62 (Non-Small Cell Lung Cancer)
# NCI-H522 = assay: NCI in-vitro testing, NCI-H522 (Non-Small Cell Lung Cancer)
# LOX IMVI = assay: NCI in-vitro testing, LOX IMVI (Melanoma)
# Sw620 = assay: Cell viability, Sw620 colon cancer cells; type: cell-based, human; conditions: Homo sapiens, SW-620; Sw620, Colon; read-out: IC50 (−LogM) (converted)
# 786-0 = assay: NCI in-vitro testing, 786-0 (Renal Cancer)
# [2] = Homo sapiens, read-out: Log10 GI50 (converted)
compound,measurement,setting,value
"OCc1cn(Cc2ccc(Cl)cc2)c2ccccc12 [Oncrasin K060, 1H-Indole-3-methanol, 1-[(4-chlorophenyl)methyl]-]",TGI,CCRF-CEM,4.31E−6 Molar
same,GI50,CCRF-CEM; Homo sapiens,1.74 µM
same,CC50,"CCRF-CEM; Homo sapiens, read-out: LC50",14.8 µM
same,GI50,CCRF-CEM; [2],1.74 µM
same,Percent Growth,CCRF-CEM; Log10 Concentration −4.0 Molar,−67%
same,Percent Growth,CCRF-CEM; Log10 Concentration −5.0 Molar,−47%
same,Percent Growth,CCRF-CEM; Log10 Concentration −6.0 Molar,81%
same,Percent Growth,CCRF-CEM; Log10 Concentration −7.0 Molar,97%
same,Percent Growth,CCRF-CEM; Log10 Concentration −8.0 Molar,100%
same,GI50,"RXF 393; Homo sapiens, RXF 393",< 0.01 µM
same,CC50,"RXF 393; Homo sapiens, RXF 393, read-out: LC50",23.2 µM
same,GI50,"RXF 393; Homo sapiens, RXF 393, read-out: Log10 GI50 (converted)",< 0.01 µM
same,TGI,RXF 393; RXF 393,2.44E−7 Molar
same,Percent Growth,"RXF 393; RXF 393, Log10 Concentration −4.0 Molar",−85%
same,Percent Growth,"RXF 393; RXF 393, Log10 Concentration −5.0 Molar",−30%
same,Percent Growth,"RXF 393; RXF 393, Log10 Concentration −6.0 Molar",−12%
same,Percent Growth,"RXF 393; RXF 393, Log10 Concentration −7.0 Molar",7%
same,Percent Growth,"RXF 393; RXF 393, Log10 Concentration −8.0 Molar",31%
same,GI50,"SF-539; Homo sapiens, SF-539",10.9 µM
same,CC50,"SF-539; Homo sapiens, SF-539, read-out: LC50",60 µM
same,GI50,"SF-539; Homo sapiens, SF-539, read-out: Log10 GI50 (converted)",11 µM
same,TGI,SF-539; SF-539,2.70E−5 Molar
same,Percent Growth,"SF-539; SF-539, Log10 Concentration −4.0 Molar",−73%
same,Percent Growth,"SF-539; SF-539, Log10 Concentration −5.0 Molar",55%
same,Percent Growth,"SF-539; SF-539, Log10 Concentration −6.0 Molar",104%
same,Percent Growth,"SF-539; SF-539, Log10 Concentration −7.0 Molar",110%
same,Percent Growth,"SF-539; SF-539, Log10 Concentration −8.0 Molar",108%
same,anticancer spectrum in NCI panel,"[1]; leukemia, non small lung, colon, melanoma, ovarian, renal, breast",active in a number of cancer cell lines
same,GI50,"[1]; of 54 cancer cell lines tested, read-out: medium 50% growth inhibition (GI50) concentration",1.12 µM
same,GI50,"SNB-75; Homo sapiens, SNB-75",76.4 µM
same,CC50,"SNB-75; Homo sapiens, SNB-75, read-out: LC50",62.8 µM
same,GI50,"SNB-75; Homo sapiens, SNB-75, read-out: Log10 GI50 (converted)",7.59 µM
same,TGI,SNB-75; SNB-75,2.31E−5 Molar
same,Percent Growth,"SNB-75; SNB-75, Log10 Concentration −4.0 Molar",−73%
same,Percent Growth,"SNB-75; SNB-75, Log10 Concentration −5.0 Molar",42%
same,Percent Growth,"SNB-75; SNB-75, Log10 Concentration −6.0 Molar",112%
same,Percent Growth,"SNB-75; SNB-75, Log10 Concentration −7.0 Molar",119%
same,Percent Growth,"SNB-75; SNB-75, Log10 Concentration −8.0 Molar",118%
same,GI50,"SF-268; Homo sapiens, SF-268",12.4 µM
same,CC50,"SF-268; Homo sapiens, SF-268, read-out: LC50",> 100 µM
same,GI50,"SF-268; Homo sapiens, SF-268, read-out: Log10 GI50 (converted)",12.3 µM
same,TGI,SF-268; SF-268,4.58E−5 Molar
same,Percent Growth,"SF-268; SF-268, Log10 Concentration −4.0 Molar",−30%
same,Percent Growth,"SF-268; SF-268, Log10 Concentration −5.0 Molar",56%
same,Percent Growth,"SF-268; SF-268, Log10 Concentration −6.0 Molar",94%
same,Percent Growth,"SF-268; SF-268, Log10 Concentration −7.0 Molar",98%
same,Percent Growth,"SF-268; SF-268, Log10 Concentration −8.0 Molar",106%
same,TGI,ACHN,2.25E−5 Molar
same,GI50,ACHN; Homo sapiens,2 µM
same,CC50,"ACHN; Homo sapiens, read-out: LC50",> 100 µM
same,GI50,ACHN; [2],2.63 µM
same,Percent Growth,ACHN; Log10 Concentration −4.0 Molar,−30%
same,Percent Growth,ACHN; Log10 Concentration −5.0 Molar,10%
same,Percent Growth,ACHN; Log10 Concentration −6.0 Molar,75%
same,Percent Growth,ACHN; Log10 Concentration −7.0 Molar,92%
same,Percent Growth,ACHN; Log10 Concentration −8.0 Molar,99%
same,GI50,"MOLT-4; Homo sapiens, MOLT-4",17.7 µM
same,CC50,"MOLT-4; Homo sapiens, MOLT-4, read-out: LC50",82.8 µM
same,GI50,"MOLT-4; Homo sapiens, MOLT-4, read-out: Log10 GI50 (converted)",17.8 µM
same,TGI,MOLT-4; MOLT-4,3.82E−5 Molar
same,Percent Growth,"MOLT-4; MOLT-4, Log10 Concentration −4.0 Molar",−62%
same,Percent Growth,"MOLT-4; MOLT-4, Log10 Concentration −5.0 Molar",87%
same,Percent Growth,"MOLT-4; MOLT-4, Log10 Concentration −6.0 Molar",109%
same,Percent Growth,"MOLT-4; MOLT-4, Log10 Concentration −7.0 Molar",102%
same,Percent Growth,"MOLT-4; MOLT-4, Log10 Concentration −8.0 Molar",114%
same,GI50,"NCI-H23; Homo sapiens, NCI-H23",2.9 µM
same,CC50,"NCI-H23; Homo sapiens, NCI-H23, read-out: LC50",71.1 µM
same,GI50,"NCI-H23; Homo sapiens, NCI-H23, read-out: Log10 GI50 (converted)",2.88 µM
same,TGI,NCI-H23; NCI-H23,2.10E−5 Molar
same,Percent Growth,"NCI-H23; NCI-H23, Log10 Concentration −4.0 Molar",−54%
same,Percent Growth,"NCI-H23; NCI-H23, Log10 Concentration −5.0 Molar",31%
same,Percent Growth,"NCI-H23; NCI-H23, Log10 Concentration −6.0 Molar",67%
same,Percent Growth,"NCI-H23; NCI-H23, Log10 Concentration −7.0 Molar",82%
same,Percent Growth,"NCI-H23; NCI-H23, Log10 Concentration −8.0 Molar",94%
same,GI50,"SNB-19; Homo sapiens, SNB-19",17.6 µM
same,CC50,"SNB-19; Homo sapiens, SNB-19, read-out: LC50",> 100 µM
same,GI50,"SNB-19; Homo sapiens, SNB-19, read-out: Log10 GI50 (converted)",17.8 µM
same,TGI,SNB-19; SNB-19,5.69E−5 Molar
same,Percent Growth,"SNB-19; SNB-19, Log10 Concentration −4.0 Molar",−24%
same,Percent Growth,"SNB-19; SNB-19, Log10 Concentration −5.0 Molar",74%
same,Percent Growth,"SNB-19; SNB-19, Log10 Concentration −6.0 Molar",91%
same,Percent Growth,"SNB-19; SNB-19, Log10 Concentration −7.0 Molar",97%
same,Percent Growth,"SNB-19; SNB-19, Log10 Concentration −8.0 Molar",103%
same,TGI,DU-145; DU-145,2.78E−5 Molar
same,Percent Growth,"DU-145; DU-145, Log10 Concentration −4.0 Molar",−53%
same,Percent Growth,"DU-145; DU-145, Log10 Concentration −5.0 Molar",42%
same,Percent Growth,"DU-145; DU-145, Log10 Concentration −6.0 Molar",96%
same,Percent Growth,"DU-145; DU-145, Log10 Concentration −7.0 Molar",105%
same,Percent Growth,"DU-145; DU-145, Log10 Concentration −8.0 Molar",108%
same,GI50,"DU-145; Homo sapiens, DU-145",7.25 µM
same,CC50,"DU-145; Homo sapiens, DU-145, read-out: LC50",93.3 µM
same,GI50,"DU-145; Homo sapiens, DU-145, read-out: Log10 GI50 (converted)",7.24 µM
same,TGI,HOP-62; HOP-62,1.93E−5 Molar
same,Percent Growth,"HOP-62; HOP-62, Log10 Concentration −4.0 Molar",−37%
same,Percent Growth,"HOP-62; HOP-62, Log10 Concentration −5.0 Molar",15%
same,Percent Growth,"HOP-62; HOP-62, Log10 Concentration −6.0 Molar",36%
same,Percent Growth,"HOP-62; HOP-62, Log10 Concentration −7.0 Molar",07%
same,Percent Growth,"HOP-62; HOP-62, Log10 Concentration −8.0 Molar",91%
same,GI50,"HOP-62; Homo sapiens, HOP-62",0.3 µM
same,CC50,"HOP-62; Homo sapiens, HOP-62, read-out: LC50",> 100 µM
same,GI50,"HOP-62; Homo sapiens, HOP-62, read-out: Log10 GI50 (converted)",0.363 µM
same,TGI,NCI-H522,1.24E−5 Molar
same,GI50,"NCI-H522; Homo sapiens, NCI-H522",2.41 µM
same,CC50,"NCI-H522; Homo sapiens, NCI-H522, read-out: LC50",51 µM
same,GI50,"NCI-H522; Homo sapiens, NCI-H522, read-out: Log10 GI50 (converted)",2.4 µM
same,Percent Growth,NCI-H522; Log10 Concentration −4.0 Molar,−74%
same,Percent Growth,NCI-H522; Log10 Concentration −5.0 Molar,7%
same,Percent Growth,NCI-H522; Log10 Concentration −6.0 Molar,76%
same,Percent Growth,NCI-H522; Log10 Concentration −7.0 Molar,82%
same,Percent Growth,NCI-H522; Log10 Concentration −8.0 Molar,91%
same,TGI,LOX IMVI,1.58E−6 Molar
same,GI50,LOX IMVI; Homo sapiens,4.48 µM
same,CC50,"LOX IMVI; Homo sapiens, read-out: LC50",47.2 µM
same,GI50,LOX IMVI; [2],4.47 µM
same,Percent Growth,LOX IMVI; Log10 Concentration −4.0 Molar,−86%
same,Percent Growth,LOX IMVI; Log10 Concentration −5.0 Molar,26%
same,Percent Growth,LOX IMVI; Log10 Concentration −6.0 Molar,96%
same,Percent Growth,LOX IMVI; Log10 Concentration −7.0 Molar,96%
same,Percent Growth,LOX IMVI; Log10 Concentration −8.0 Molar,102%
same,IC50,Sw620,5.01 µM
same,TGI,786-0; 786-0,2.19E−5 Molar
same,Percent Growth,"786-0; 786-0, Log10 Concentration −4.0 (Molar)",−52%
same,Percent Growth,"786-0; 786-0, Log10 Concentration −5.0 (Molar)",27%
same,Percent Growth,"786-0; 786-0, Log10 Concentration −6.0 (Molar)",76%
same,Percent Growth,"786-0; 786-0, Log10 Concentration −7.0 (Molar)",88%
same,Percent Growth,"786-0; 786-0, Log10 Concentration −8.0 (Molar)",99%
same,GI50,"786-0; Homo sapiens, 786-0",34 µM
same,CC50,"786-0; Homo sapiens, 786-0, read-out: LC50",94.7 µM
same,GI50,"786-0; Homo sapiens, 786-0, read-out: Log10 GI50 (converted)",3.39 µM

# From patent US8883841B2, “Oncogenic ras-specific cytotoxic compound and methods of use thereof” (The Board of Regents of the University of Texas System, priority 2005, dated 2014)
